The numbers were not newly measured in patent US20020144302A1 (priority 1996, published 2002), which cites them from elsewhere.

For this series the following is noted: man; daily dose around 200 mg (Vidal, 1996).

As for `CC(C)OC(=O)C(C)(C)Oc1ccc(C(=O)c2ccc(Cl)cc2)cc1` [fenofibrate], the plasma concentration result is reported as “about 15 μg/ml”.
